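Assay format: 96-well plates, 48-hour exposure. The concentration for 50% growth inhibition is given as GI50. TGI: concentration producing complete growth inhibition.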

The results in this text go back to PubChem BioAssay (NCI).

Assay in all cases: growth of human tumour cells (NCI), 48 h
Assay [1] deals with K-562 leukemia.
The subject of assay [2] is EKVX NSCLC.
For assay [3], the system named is ACHN renal.
The subject of assay [4] is SN12C renal.
For assay [5], the system named is NCI-H460 lung.
Assay [6] deals with COLO 205 colon.
The test system of assay [7] is HCC-2998 colon.
Assay [8] has as its system UACC-62 melanoma.
Assay [9] relates to KM12 colon.
Assay [10] has as its system NCI-H522 lung.

`O=C(CCCCC(=O)N/N=C\c1ccccc1O)N/N=C\c1ccccc1O`: the GI50 in assay [1] is 3.92 µM; in [2] it was 7.75 µM; in assay [3] it was 3.53 µM; in [4] it was 4.5 µM; in [5], 3.14 µM; in assay [6], 3.67 µM. For the same compound, the values for the GI50 in assay [7] and in [8] were 3.87 µM and 2.5 µM, respectively. Moreover, the TGI in assay [1], in assay [2], in assay [3], in assay [4], in assay [5] and in [6] was more than 100 µM throughout. Also, the TGI in assay [7] and in assay [8] was more than 100 µM each time.
Regarding `O=C1C(Cl)=C(Nc2cccc(C(F)(F)F)c2)C(=O)N1Cc1ccc(Cl)cc1`, the GI50 in [1] was 1.33 µM; in assay [3], 0.421 µM; in [4], 0.545 µM; in assay [5], less than 0.0461 µM; in [9], 2.35 µM; in [6], 0.867 µM. Besides, the results for the GI50 in [10] and in [7] were 2.11 µM and 0.835 µM, respectively. Further, the TGI in [1] was more than 100 µM; in assay [3], 15.1 µM; in [4], 10.7 µM; in assay [5], 13.3 µM; in [9] it was 19.6 µM; in assay [6], 20.1 µM. The TGI in [10] was determined as 25.2 µM; in assay [7], 18.8 µM; in assay [8], 1.26 µM.
On to `Brc1cc2c(cc1Br)CN(c1ccccc1)C2`, for which the TGI in [1], in assay [2], in [3], in assay [4], in assay [5] and in assay [9] was more than 100 µM each time. In addition, the TGI in assay [6], in [7] and in assay [8] was more than 100 µM throughout.
On to `CN(C)C(=O)Oc1c(-c2ccccc2)c(=O)n2c3ccccc3n3c(=O)n(C)c(=O)c1c23`, for which the TGI in assay [2], in assay [3], in [4], in assay [5], in assay [6] and in [7] was more than 100 µM in each case. In assay [8], this compound gave a TGI of more than 100 µM.
For the compound `CCN(Cc1c(Cl)cccc1Cl)c1ccc(CO)c(Cl)c1`, the GI50 in assay [1] is 0.439 µM; in [3], 14.2 µM; in assay [4], 11.7 µM; in assay [5], 0.171 µM; in [9] it was 13.7 µM; in [6], 2.41 µM. In addition, the GI50 in [10] was 11.1 µM; in assay [7] it was 12.3 µM; in [8], 0.0406 µM. The TGI worked out at 10.6 µM in [1]; 27.3 µM in assay [3]; 24 µM in assay [4]; 13.9 µM in assay [5]; 28.4 µM in assay [9]; 11.7 µM in assay [6]. The TGI in assay [10] came to 24.9 µM; in assay [7] it was 27.6 µM; in [8] it was 0.741 µM.
Regarding `CC(=O)[CH-]C(C)=O.CC(=O)[CH-]C(C)=O.CC[O-].CC[O-].[Ti+4]`, the GI50 in assay [1], in assay [3], in [4], in assay [5], in [9] and in [6] was more than 100 µM in each case. Besides, the GI50 in [10], in [7] and in assay [8] was more than 100 µM in each case. For the same compound, the TGI in assay [1], in assay [3], in [4], in [5], in assay [9] and in assay [6] was more than 100 µM each time. Moreover, the TGI in assay [10], in [7] and in assay [8] was more than 100 µM each time.
In the case of `Cc1cccc2c(O)cc(=O)oc12`, the TGI in assay [1], in assay [2], in [3], in assay [4], in [5] and in assay [9] was more than 100 µM in each case. This compound also returned a TGI in assay [8] of more than 100 µM.
For `CCCCCn1c(C)cc(/C=C\c2ccc3cc(C)ccc3[n+]2C)c1C`, the GI50 in [1] was 0.0341 µM; in assay [2], 0.275 µM; in assay [3], 0.239 µM; in assay [5], 0.113 µM; in [9] it was 0.0836 µM; in assay [7], 0.143 µM. Moreover, the GI50 in assay [8] is 0.243 µM. The TGI in [1] amounted to 1.11 µM; in assay [2], 2.43 µM; in [3], 1.15 µM; in assay [5], 0.839 µM; in assay [9], 1.21 µM; in [7] it was 1.51 µM. The TGI in assay [8] was found to be 1.1 µM.
Turning to `CN(C)CC/C(=N\Nc1ccc(Cl)cc1Cl)c1ccccc1`, the TGI in assay [1] was found to be 33.4 µM; in [2] it was 43.1 µM; in [3], 29.4 µM; in assay [4], 25.1 µM; in [5], 28.3 µM; in assay [9], 31.2 µM. Also, the TGI was found to be 29.2 µM in assay [6] and 27.7 µM in [8].
Turning to `CC[C@H](C)C(=O)O[C@H]1C[C@H](O)C=C2C=C[C@H](C)[C@H](CC[C@@H](O)C[C@@H](O)CC(=O)O)[C@H]21`, the GI50 in assay [1], in [3], in assay [4], in assay [5], in [9] and in [6] was more than 100 µM in each case. In addition, the GI50 in [10] was 63 µM; in assay [7], more than 100 µM; in [8], more than 100 µM. For the same compound, the TGI in [1], in assay [3], in assay [4], in [5], in [9] and in assay [6] was more than 100 µM throughout. Moreover, the TGI in assay [10], in assay [7] and in assay [8] was more than 100 µM in each case.
With `N#CCC(=O)N1CCCCCCC1`, the TGI in assay [1], in assay [2], in [3], in assay [4], in assay [5] and in assay [9] was more than 100 µM in each case. Also, the results for the TGI in assay [6], in assay [7] and in [8] were 28.9 µM, more than 100 µM and more than 100 µM, respectively.
Turning to `Cn1cc(C2=C(N3CCOCC3)C(=O)NC2=O)c2ccccc21`, the GI50 in assay [1], in assay [3], in assay [4], in assay [5], in assay [9] and in [6] was more than 25 µM each time. For the same compound, the GI50 in [10], in [7] and in assay [8] was more than 25 µM in each case. Further, the TGI in assay [1], in assay [3], in assay [4], in [5], in assay [9] and in assay [6] was more than 25 µM throughout. In addition, the TGI in assay [10], in assay [7] and in assay [8] was more than 25 µM in each case.
With `O=C(O)c1cc2ccccc2c2c1C(=O)c1ccccc1-2`, the TGI in assay [1], in assay [3], in assay [4], in [5], in assay [9] and in [6] was more than 100 µM each time. In addition, the TGI in [10], in [7] and in assay [8] was more than 100 µM in each case.
For the compound `CC1(C)N=C(c2ccccn2)C(c2ccccn2)=NC1(C)C`, the TGI in [1], in assay [2], in assay [3], in [4], in assay [5] and in [9] was more than 100 µM throughout. Moreover, the TGI in [6], in assay [7] and in [8] was more than 100 µM each time.
For `O=C(CCc1ccc(O)cc1)N/N=C/c1cc(Br)ccc1O`, the GI50 in assay [1] was 3.12 µM; in assay [3], 3.33 µM; in assay [4] it was 4.76 µM; in assay [5], 2.93 µM; in assay [9] it was 3.36 µM; in [6] it was 14 µM. Moreover, the GI50 in assay [10] was 3.73 µM; in assay [7], 7.12 µM; in assay [8], 2.44 µM. Moreover, the TGI in assay [1] was 28.6 µM; in assay [3], more than 100 µM; in [4] it was 73.6 µM; in assay [5], 14.2 µM; in assay [9] it was 31.5 µM; in assay [6], more than 100 µM. In addition, the TGI in assay [10] came to 18.1 µM; in assay [7], 96.9 µM; in assay [8], 7.02 µM.
Take `NC(=S)NN=C1CSSC1`: the GI50 in [1] is 27 µM; in [3], 3.05 µM; in [4], 4.67 µM; in assay [5], 1.61 µM; in assay [9], 5.92 µM; in assay [6], 2.4 µM. For the same compound, the results for the GI50 in assay [10], in assay [7] and in assay [8] were 2.95 µM, 6.74 µM and 3.21 µM, respectively. The TGI in [1] was more than 100 µM; in [3], 31.7 µM; in assay [4], more than 100 µM; in assay [5], 6.49 µM; in assay [9], 23.5 µM; in assay [6], 5.67 µM. Also, the values for the TGI in assay [10], in assay [7] and in [8] were 15.4 µM, 40.3 µM and 17.2 µM, respectively.
